In general, IC50 refers to the concentration that gives 50% inhibition.

These results are taken from ChEMBL document CHEMBL4715755, “Isothiouronium modification empowers pyrimidine-substituted curcumin analogs potent cytotoxicity and Golgi localization” (Eur J Med Chem, 2016).

For series [1], the system named is CHO. Nature of the series: Cytotoxicity against CHO cells overexpressing 3-O-sulfotransferase 1 assessed as reduction in cell viability at 10 uM incubated for 48 hrs by resazurin reagent based fluorescence assay. More on the design: species or system Cricetulus griseus. The note with it: chinese hamster. (In general: Alamar Blue is a resazurin reagent that responds to reducing activity.)

The test system of series [2] is CHO. Nature of the series: Cytotoxicity against CHO cells overexpressing 3-O-sulfotransferase 3 assessed as reduction in cell viability at 10 uM incubated for 48 hrs by resazurin reagent based fluorescence assay. The note with it: chinese hamster. More on the design: species or system Cricetulus griseus.
The subject of a further series is NCI-H1299. Nature of the series: Cytotoxicity against human NCI-H1299 cells assessed as reduction in cell viability incubated for 48 hrs by resazurin reagent based fluorescence assay. Type of series: functional. Conditions: NCI-H1299, 48 h.
Series [3] can be described thus: Drug localization in golgi bodies of human A549 cells at 10 uM measured upto 12 hrs by Golgin-97 and DAPI staining based laser scanning confocal microscopic analysis. The series is classed as ADME, subcellular, Golgi body. Conditions: a549, 12 h.
Series [4] concerns A549. Nature of the series: Cytotoxicity against human A549 cells assessed as reduction in cell viability at 10 uM incubated for 48 hrs by resazurin reagent based fluorescence assay. The series is classed as functional.
The next series deals with HT-29. Nature of the series: Cytotoxicity against human HT-29 cells assessed as reduction in cell viability incubated for 48 hrs by resazurin reagent based fluorescence assay. The series is classed as functional. The note with it: HT-29, 48 h.
In series [5] the test system is CHO. Put plainly: Cytotoxicity against CHO cells overexpressing 3-O-sulfotransferase 4 assessed as reduction in cell viability at 10 uM incubated for 48 hrs by resazurin reagent based fluorescence assay. The arrangement: species or system Cricetulus griseus. The note with it: chinese hamster.
Series [6] can be described thus: Drug localization in golgi bodies of human HCT-116 cells at 10 uM measured upto 12 hrs by Golgin-97 and DAPI staining based laser scanning confocal microscopic analysis. Type of series: ADME, subcellular, Golgi body. The note with it: hct-116, 12 h.
The test system of the next series is HCT-116. Nature of the series: Cytotoxicity against human HCT-116 cells assessed as reduction in cell viability incubated for 48 hrs by resazurin reagent based fluorescence assay. Type of series: functional. The note with it: HCT-116, 48 h.
Series [7] can be described thus: Cytotoxicity against heparan sulfate-deficient CHO-677 cells assessed as reduction in cell viability at 10 uM incubated for 48 hrs by resazurin reagent based fluorescence assay. The arrangement: species or system Cricetulus griseus. Conditions: chinese hamster, cho-677, 48 h.
The subject of a further series is CHO-K1. Put plainly: Cytotoxicity against CHO-K1 cells assessed as reduction in cell viability at 10 uM incubated for 48 hrs by resazurin reagent based fluorescence assay. More on the design: species or system Cricetulus griseus. The note with it: chinese hamster, cho-k1, 48 h.
The nature of series [8]: Drug localization in golgi bodies of human A549 cells at 10 uM incubated for 4 hrs by Golgin-97 and DAPI staining based laser scanning confocal microscopic analysis. The series is classed as ADME, subcellular, Golgi body. The note with it: a549, 4 h.
The test system of series [9] is A549. Nature of the series: Cytotoxicity against human A549 cells assessed as reduction in cell viability incubated for 48 hrs by resazurin reagent based fluorescence assay. The series is classed as functional. The note with it: A549, 48 h.
Series [10] can be described thus: Cytotoxicity against GAG-deficient CHO-745 cells assessed as reduction in cell viability at 10 uM incubated for 48 hrs by resazurin reagent based fluorescence assay. More on the design: species or system Cricetulus griseus. The note with it: chinese hamster, cho-745, 48 h.
Series [11] deals with CHO. Nature of the series: Cytotoxicity against CHO cells overexpressing 3-O-sulfotransferase 2 assessed as reduction in cell viability at 10 uM incubated for 48 hrs by resazurin reagent based fluorescence assay. Conditions: chinese hamster. More on the design: species or system Cricetulus griseus.
Series [12] in a line: Drug localization in cytoplasm of human A549 cells at 10 uM measured upto 12 hrs by Golgin-97 and DAPI staining based laser scanning confocal microscopic analysis. Conditions: a549, 12 h. Type of series: ADME, subcellular.
A short description of series [13]: Drug localization in cytoplasm of human A549 cells at 10 uM incubated for 4 hrs by Golgin-97 and DAPI staining based laser scanning confocal microscopic analysis. The series is classed as ADME, subcellular. The note with it: a549, 4 h.
Series [14] is described as follows: Drug localization in cytoplasm of human HCT-116 cells at 10 uM measured upto 12 hrs by Golgin-97 and DAPI staining based laser scanning confocal microscopic analysis. Conditions: hct-116, 12 h. Type of series: ADME, subcellular.

Active and inactive are the calls of the source. No cut-off for these calls is given here.

`Br.COc1ccc(/C=C/c2cc(/C=C/c3ccc(OC)cc3)nc(OCCCCSC(=N)N)n2)cc1`: the Activity result (with CHO [1]; in the series on CHO [2]; in the series on CHO [5]; in [7]; in the series on CHO-K1; in series [10]) was “Toxic” throughout. In the series with CHO [11], the Activity result is reported as “Toxic”. Also, the IC50 with NCI-H1299 is 920 nM; with HT-29, 790 nM; in the series on HCT-116, 1000 nM; in the series on A549 [9] it was 990 nM. The Drug uptake result in series [3], in series [6] and in [8] was “Active” in each case. In addition, the outcome in the series with A549 [4] was Active.
For the compound `COc1ccc(/C=C/c2cc(/C=C/c3ccc(OC)cc3)nc(OCCCCBr)n2)cc1`, the Activity entry (in the series on CHO [1]; in the series on CHO [2]; with CHO [5]; in [7]; in the series on CHO-K1; in [10]) was “Non-Toxic” in each case. Moreover, in the series on CHO [11], the Activity entry is on record as “Non-Toxic”. Also, the IC50 in the series on NCI-H1299, with HT-29, with HCT-116 and in the series on A549 [9] was greater than 20000 nM in each case. Besides, in the series with A549 [4], the outcome was inactive. Also, the Drug uptake entry in series [12], in series [13] and in series [14] was “Active” in each case.
